Data: US20040266748A1, “Photosensitizing carbamate derivatives” (priority 2001, published 2004)

Legend:
[1] = test system: subcutaneous chondrosarcoma tumors; experiment: Chondrosarcoma tumor growth delay after PDT; assay type: in vivo, Sprague-Dawley rats; conditions: rats; drug dose 2.0 μmol/kg; light dose 125 J/cm2; optimal conditions, 24 hrs post drug administration
Description: The carbamate compounds were formulated in egg yolk phosphatidyl choline (EYP) and phosphate buffered saline (PBS) (pH 7.4). These were sterilized by filtration through a 0.2-micron nylon filter and determined to be stable for at least several weeks following formulation by HPLC. Five Sprague-Dawley rats with subcutaneous chondrosarcoma tumors in the flank of a certain volume (150-250 mm^3) were injected intravenously with various drugs at various doses. Three hours after the injection the tumors were exposed to 664-nm light at light doses of 125 J/cm^2 or 200 J/cm^2. The end point of the study was the observation of tumor regrowth (averaged over the animals) following the treatment.
Table 2 illustrates the results for the best drug and light doses that were tested in the above system and are compared with the well known photosensitizer SnET2 under optimal conditions (24 hrs post drug administration).

normal skin = experiment: Normal skin clearance (skin response) of photosensitizers in irradiated hairless rats; assay type: in vivo; conditions: drug dose 0.5 μmol/Kg, light dose 150 mW/cm^2/125 J at activation wavelength, time point post injection
Excerpt: Ester and amide cleavage appear to be the major metabolic routes. As stated previously, one of the inventors' surprising and unexpected biological observations was that the carbamate analogs produce limited skin phototoxicity. Table 1 outlines the normal skin clearance of several carbamate photosensitizers as determined by irradiating hairless rats at the activation wavelength of the photosensitizer at 150 mW/cm2/125 J at different time points post injection. As can be clearly seen, carbamate analogs elicit skin responses at very early time points (1-6 hrs) and not past 6 hrs. […] Examples in Table (1) include compounds (26) and (Chl) and (37) and (35). In these cases the hydroxylated parent tetrapyrroles (Chl) and (35), at drug doses of 0.5 μmol/Kg, elicit maximal normal skin responses at 24 and 48 hrs, respectively. By comparison, their carbamate analogs (26) and (37), at drug doses of 1.0 μmol/Kg and 1.5 μmol/Kg, respectively, elicit maximal skin responses at 6 hrs only. Clearly, if ester metabolism of the carbamate back to the parent hydroxylated macrocycle was rapid in blood plasma one would expect skin responses similar to parent hydroxylated macrocycle. This is not the case. It is known by the present inventors and others that metabolism of the propionic acid methyl ester functionality is generally slow in rat and human blood plasma (10-20% metabolism at 24 hrs).

Row | Compound | Days (regrowth) [1] [days] | Skin Response (normal skin) [h]
1 | CCOC(=O)C1=Cc2c3nc(cc4nc(cc5[n-]c(cc6[n-]c2c(C)c6CC)c(C)c5CC)C(C)=C4CC)[C@@H](C)[C@]13CC.[Cl-].[Cl-].[Sn] (racemic) [SnET2, Tin Ethyletiopurpurin] | 13 | 
2 | diethanolsulfonylamide zinc octaethylbenzochlorin [(35)] |  | 48
